Assay results published in patent US7511137B2, “Stereoisomers and stereoisomeric mixtures of 1-(2,4-pyrimidinediamino)-2-cyclopentanecarboxamide synthetic intermediates” (Rigel Pharmaceuticals, Inc., priority 2003, dated 2009).
“Also recorded” adds a separate entry of the source. Read-outs that look alike come from different tables or passages of the source.

Legend:
Assay type in all cases: cell-based
[1] = tested on: HCT116 (colon/p53wt); test: in vitro antiproliferation assay, HCT116; settings: Homo sapiens, HCT-116; HCT116 colon/p53wt tumor cell line
Procedure: (§1) The four stereoisomers isomers of (1S, 2R)-1-(2,4-pyrimidinediamino)-2-cyclopentanecarboxamide (1), (2), (3) and (4) were prepared as described in Examples 1-4. The racemic mixture of the cis compound was prepared as described herein. The IC50 values of various compounds against different tumor cell lines were determined using standard in vitro antiproliferation assays. The tumor cell lines tested were as follows: A549 (lung); H1299 (lung); DU145 (prostate); HCT116 (colon/p53wt); and mirapaca.

[2] = tested on: a variety of tumor cell lines; test: conventional antiproliferative assays, result in words
Procedure: Accordingly, stereoisomers of related 1-(2,4-pyrimidinediamino)-2-cyclopentanecarboxamides are expected to have analogous activity in antiproliferative assays.
as §1

[3] = tested on: A549 (lung); test: in vitro antiproliferation assay, A549; settings: Homo sapiens; A549 lung tumor cell line
Procedure: as §1

[4] = tested on: H1299 (lung); test: in vitro antiproliferation assay, H1299; settings: Homo sapiens, NCI-H1299; H1299 lung tumor cell line
Procedure: as §1

[5] = tested on: DU145 (prostate); test: in vitro antiproliferation assay, DU145; settings: Homo sapiens, DU-145; DU145 prostate tumor cell line
Procedure: as §1

Structure (SMILES) | IC50 [1] [µM] | antiproliferative activity (in words) [2] | IC50 [3] [µM] | IC50 [4] [µM] | IC50 [5] [µM] | antiproliferative activity (in words) ([2]; listed as trans (1S, 2S))
Cc1cc(Nc2ncc(F)c(N[C@@H]3CCC[C@@H]3C(N)=O)n2)ccc1N1CCN(C)CC1 [Compound 1, (1S, 2R)-1-(2,4-pyrimidinediamino)-2-cyclopentanecarboxamide] | < 0.1 | antiproliferative activity; also recorded: active | – | – | – | –
Cc1cc(Nc2ncc(F)c(N[C@@H]3CCC[C@H]3C(N)=O)n2)ccc1N1CCN(C)CC1 [Compound 4, (1R, 2R)-1-(2,4-pyrimidinediamino)-2-cyclopentanecarboxamide] | < 5 | active | < 5 | < 5 | < 5 | –
Cc1cc(Nc2ncc(F)c(N[C@H]3CCC[C@H]3C(N)=O)n2)ccc1N1CCN(C)CC1 [Compound 2, (1R, 2S)-1-(2,4-pyrimidinediamino)-2-cyclopentanecarboxamide] | – | antiproliferative activity; also recorded: active | < 5 | < 10 | – | –
Cc1cc(Nc2ncc(F)c(N[C@H]3CCC[C@@H]3C(N)=O)n2)ccc1N1CCN(C)CC1 [Compound 3, (1S, 2S)-1-(2,4-pyrimidinediamino)-2-cyclopentanecarboxamide] | – | antiproliferative activity | > 20 | > 20 | – | inactive
